Data from patent US6821988B2, “3-cyanoquinolines as inhibitors of EGF-R and HER2 kinases” (Wyeth Holdings Corporation, priority 2001, dated 2004).
Converted amounts (≈) assume the structure as drawn. One block for each molecule: values may come before it.

How the values were obtained:
[1] = biological target: T1, EGFR cytoplasmic domain (EGFR-CD, amino acid 645-1186) (Homo sapiens, UniProt P00533); assay: Inhibition of EGF-R kinase autophosphorylation, recombinant enzyme, DELFIA/time-resolved fluorometry; format: biochemical
T1 construct: EGFR cytoplasmic domain (EGFR-CD, amino acid 645-1186); made in house; host or cells: Sf-9 insect cells, baculovirus (pFASTBacHTc)
T1 sequence (P00533 669-1210): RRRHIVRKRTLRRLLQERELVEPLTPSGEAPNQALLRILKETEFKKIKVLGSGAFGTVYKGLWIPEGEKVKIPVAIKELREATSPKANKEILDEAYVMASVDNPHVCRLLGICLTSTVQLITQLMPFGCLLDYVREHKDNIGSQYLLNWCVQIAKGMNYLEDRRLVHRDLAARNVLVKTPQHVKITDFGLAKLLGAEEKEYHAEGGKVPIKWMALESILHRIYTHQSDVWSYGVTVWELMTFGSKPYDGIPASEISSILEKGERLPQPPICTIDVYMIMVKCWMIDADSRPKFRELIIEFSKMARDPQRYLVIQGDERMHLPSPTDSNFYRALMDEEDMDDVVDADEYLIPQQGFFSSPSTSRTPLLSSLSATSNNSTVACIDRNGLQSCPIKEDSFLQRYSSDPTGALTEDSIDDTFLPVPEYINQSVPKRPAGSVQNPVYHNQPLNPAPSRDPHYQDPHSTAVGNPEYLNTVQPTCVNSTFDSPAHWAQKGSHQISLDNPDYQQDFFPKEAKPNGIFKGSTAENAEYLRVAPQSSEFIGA
Protocol: (§1) A 1.7 kb cDNA encoding human HER2 cytoplasmic domain (HER2-CD, amino acid 676-1255) and 1.6 kb cDNA for EGFR cytoplasmic domain (EGFR-CD, amino acid 645-1186) were cloned into baculoviral expression vectors, pBlueBacHis2B (Invitrogen) and pFASTBacHTc (GIBCO), separately. A sequence encoding (His)6 is located at the 5′ end upstream to HER2 and EGFR sequences. Sf-9 cells were infected at moi=10 for 3 days for protein expression. Sf-9 cell pellets were solubilized on ice in buffer containing 50 mM HEPES, pH 7.4, 10 mM NaCl, 1% Triton, 10 μM ammonium molybdate, 100 μM sodium vanadate, 10 μg/ml aprotinin, 10 μg/ml leupeptin, 10 μg/ml pepstatin, and 16 ug/ml benzamidine HCl for 20 min followed by 20 min centrifugation. Crude extract supernatant was passed through equilibrated Ni-NTA superflow packed column (Qiagen, Valencia, Calif.) and wash with 10 mM, and 100 mM imidazole to remove unspecific binding. Histidine-tagged proteins were eluted with 250 mM and 500 mM imidazole and dialyzed against 50 mM NaCl, 20 mM HEPES, 10% glycerol and 1 μg/ml each of aprotinin, leupeptin and pepstatin for 2 h. All the purification procedure was performed at 4° C. or on ice. Purified materials were subjected for electrophoresis followed by Coommassie blue stain to determine the purity of the preparation and Western blot for the identity of protein. Enzymes were aliquoted and stored at −80° C.
(§2) Inhibition of EGFR and HER2 kinase autophosphorylation was measured by a DELFIA/time-resolved fluorometry assay. Compounds were dissolved in 100% DMSO and diluted to the appropriate concentrations with 25 mM HEPES, pH 7.4. In each well, 10 μl of compound was incubated with 10 μl of recombinant EGF-R or HER2 enzyme (1:80 dilution in 100 mM HEPES) for 10 min at room temperature. Then, 10 μl of 5×buffer (containing 20 mM HEPES, 2 mM MnCl2, 100 uM Na3VO4 and 1 mM DTT) and 20 μl of 0.1 mM ATP/50 mM MgCl2 was added for 1 h. Positive and negative controls were included in each plate by incubation of enzyme with or without ATP/MgCl2. At the end of incubation, liquid was aspirated and washed three times with wash buffer. 75 μl (400 ng).of europium-labeled anti-phosphotyrosine antibody was added to each well for another hour of incubation. After wash, enhancement solution was added and the signal was detected by Victor (Wallac Inc) with excitation at the wavelength of 340 nm and emission at the wavelength of 615 nm. All reagents were supplied by Wallac Inc (Wallac/Perkin-Elimer). Percentage of autophosphorylation inhibition by compound was calculated by […]. IC50 values were obtained from curves of percentage inhibition with 8 doses of compound.

[2] = system: SW620 (colon carcinoma); assay: Inhibition of cancer cell growth, sulforhodamine B assay, SW620; format: cell-based, human; conditions: SW620, 2 days; for IC50: Homo sapiens, SW-620, 48 h, read-out: Inhibition of Cancer Cell Growth in vitro IC50, SW620
Protocol: (§3) […], A431 (epidermoid carcinoma), SKBR3 (breast carcinoma), SW620 (colon carcinoma), and MDA-MB435 (breast carcinoma), BT474 (breast carcinoma), and two murine lines, 3T3 (murine fiboblasts) and HER2-3T3 (murine fiboblasts transfected with human HER2) were used for cell proliferation assays. Cells were maintained in RPMI -1640 medium supplemented with 5% fetal bovine serum. Cells were plated in 96-well plates at the densities of 2.5×10^4/ml for 3T3 and 3T3/HER2 and 5.0×10^4/ml for the rest of the cell lines. On the next day, compounds were dosed at 0.5, 5, 50, 500, and 5000 ng/ml and cultured for 2 days. At the end of incubation, cell survival was determined by the sulforhodamine B assay as previously described (Skehan, P; Stornet, R.; Scudiero, D.; Monks, A.; McMahon, J.; Vistica D., Warren, J.; Bokbosch, H.; Kenny, S.; Boyd, M. New Colorimetric Cytotoxic Assay for Anticancer-Drug Screening. J. Natl. Cancer Inst. 1990, 82, 1107-1112). The IC50 values (the concentration needed to inhibit cell growth by 50%) were obtained from the growth curves and are shown below in Table 2 where the results of multiple determinations are included.

[3] = system: HER2-3T3 (murine fiboblasts transfected with human HER2); assay: Inhibition of cell growth, sulforhodamine B assay, HER2-3T3; format: cell-based; conditions: HER2-3T3, 2 days; for IC50: Mus musculus, 48 h, read-out: Inhibition of Cancer Cell Growth in vitro IC50, HER2-3T3
Protocol: as §3

[4] = biological target: T2, human HER2 cytoplasmic domain (HER2-CD, amino acid 676-1255) (Homo sapiens, UniProt P04626); assay: Inhibition of HER2 kinase autophosphorylation, recombinant enzyme, DELFIA/time-resolved fluorometry; format: biochemical; conditions: recombinant HER2 autophosphorylation
T2 construct: human HER2 cytoplasmic domain (HER2-CD, amino acid 676-1255); made in house; host or cells: Sf-9 insect cells, baculovirus (pBlueBacHis2B)
T2 sequence (P04626 676-1255): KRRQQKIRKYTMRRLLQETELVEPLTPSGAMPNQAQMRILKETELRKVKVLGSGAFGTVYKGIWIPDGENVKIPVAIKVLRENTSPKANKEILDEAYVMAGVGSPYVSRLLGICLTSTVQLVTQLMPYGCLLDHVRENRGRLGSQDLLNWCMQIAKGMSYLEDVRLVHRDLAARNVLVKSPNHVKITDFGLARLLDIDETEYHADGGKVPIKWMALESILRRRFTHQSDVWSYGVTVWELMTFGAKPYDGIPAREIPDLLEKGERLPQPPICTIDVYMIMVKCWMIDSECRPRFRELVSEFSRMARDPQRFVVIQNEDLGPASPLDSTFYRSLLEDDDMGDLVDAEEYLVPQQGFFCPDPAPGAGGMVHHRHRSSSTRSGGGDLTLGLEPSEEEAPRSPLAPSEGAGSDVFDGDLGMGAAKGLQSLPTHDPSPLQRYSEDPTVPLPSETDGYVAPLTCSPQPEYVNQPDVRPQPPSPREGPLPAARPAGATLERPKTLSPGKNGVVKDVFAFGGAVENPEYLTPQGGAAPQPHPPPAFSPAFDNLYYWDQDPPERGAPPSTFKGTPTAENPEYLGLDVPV
Protocol: as §1, §2

[5] = system: MDA-MB435 (breast carcinoma); assay: Inhibition of cancer cell growth, sulforhodamine B assay, MDA-MB435; format: cell-based, human; conditions: MDA-MB435, 2 days
Protocol: as §3

[6] = system: 3T3 (murine fiboblasts); assay: Inhibition of cell growth, sulforhodamine B assay, 3T3; format: cell-based; conditions: 3T3, 2 days; for IC50: Mus musculus, 48 h, read-out: Inhibition of Cancer Cell Growth in vitro IC50, 3T3
Protocol: as §3

[7] = system: A431 (epidermoid carcinoma); assay: Inhibition of cancer cell growth, sulforhodamine B assay, A431; format: cell-based, human; conditions: A431, 2 days; for IC50: Homo sapiens, A-431, 48 h, read-out: Inhibition of Cancer Cell Growth in vitro IC50, A431
Protocol: as §3

[8] = system: Murine 3T3 fibroblasts, tranfected with Her2; assay: In vivo inhibition of the growth of tumors of murine 3T3 fibroblasts transfected with HER2 in nude mice; parameters: species or system Athymic nu/nu female mice
Protocol: Representative compounds of this invention (listed below) were evaluated in an in vivo standard pharmacological test procedure which measures their ability to inhibit tumor growth in nude mice. Murine 3T3 fibroblasts, tranfected with Her2 were grown in vitro. Athymic nu/nu female mice (Charles River, Wilmington, Mass.) were used in this in vivo standard pharmacological test procedure. A unit of 2×10^6 cells was injected SC into mice (day zero). Beginning on day 1, mice were treated IP every other day for a total of 11 days with a dose of 30 mg/kg/dose of the compound to be evaluated in 0.5% Methocel/0.4% Tween 80. Control animals received vehicle alone. […] Absolute tumor growth in mgs, (mean tumor mass on days 7, 14 and 21), is calculated for each treatment group. Statistical analysis (Student t-test) of Mean Tumor Mass compares treated verses control groups. A p-value of ≦0.05 indicates a statistically significant reduction in tumor growth of treated group compared to the vehicle control.
The compound of Example 7 was evaluated for its ability to inhibit the growth of a murine fiboblast tumor that was transfected with human HER2 in vivo using the standard pharmacological test procedure described above.

[9] = system: SKBR3 (breast carcinoma); assay: Inhibition of cancer cell growth, sulforhodamine B assay, SKBR3; format: cell-based, human; conditions: SKBR3, 2 days
Protocol: as §3

[10] = 30 mg/kg/dose IP on days 1, 3, 5, 7, 9 and 11, day 7
[11] = 30 mg/kg/dose IP on days 1, 3, 5, 7, 9 and 11, day 14

EGF-R IC50 [1]: 1.0 µg/mL | IC50 [2]: 0.19 µg/mL (≈ 0.302 µM) | IC50 [4]: 1590 nM | IC50 ([5]; Homo sapiens, MDA-MB-435, 48 h, read-out: Inhibition of Cancer Cell Growth in vitro IC50, MDA-MB435): 0.36 µg/mL (≈ 0.572 µM) | Inhibition of Cancer Cell Growth in vitro IC50, MDA-MB435 [5]: 0.49 µg/mL | Inhibition of Cancer Cell Growth in vitro IC50, A431 [7]: 0.73 µg/mL | IC50 [7]: 0.87 µg/mL (≈ 1.38 µM)
Structure (SMILES): CCOc1cc2ncc(C#N)c(Nc3ccc(OCc4ccccc4)c(Cl)c3)c2cc1NC(=O)CC(CCCN(C)C)N(C)C (centres unmarked) [Example 5, N-{4-[4-(Benzyloxy)-3-chloroanilino]-3-cyano-7-ethoxy-6-quinolinyl}-3,6-bis(dimethylamino)hexanamide]
IC50 [3]: 1.1 µg/mL (≈ 1.75 µM) | IC50 [6]: 0.42 µg/mL (≈ 0.668 µM)

Structure (SMILES): CCOc1cc2ncc(C#N)c(Nc3ccc(OCc4ccccc4)c(Cl)c3)c2cc1NC(=O)CC(CN1CCCC1)N1CCCC1 (centres unmarked) [Example 7, N-{4-[4-(Benzyloxy)-3-chloroanilino]-3-cyano-7-ethoxy-6-quinolinyl}-3,4-di(1-pyrrolidinyl)butanamide]
IC50 [2]: 0.23 µg/mL (≈ 0.352 µM) | Inhibition of Cancer Cell Growth in vitro IC50, SW620 [2]: 0.28 µg/mL | Inhibition of Cancer Cell Growth in vitro IC50, HER2-3T3 [3]: 0.014 µg/mL | IC50 [3]: 0.017 µg/mL (≈ 0.026 µM) | IC50 [4]: 33.7 nM | inhibition of tumor growth (in words) ([8]; 30 mg/kg i.p.): significantly inhibited tumor growth | tumors in the control mice larger than tumors in treated mice (fold) ([8]; 30 mg/kg i.p., day 14): 8.5 times | % T/C Day 7 [8, 10]: 15% | Mean Tumor Weight Day 7 [8, 10]: 39 mg | % T/C Day 14 [8, 11]: 12% | Mean Tumor Weight Day 14 [8, 11]: 261 mg | Mean Tumor Weight Day 21 ([8]; 30 mg/kg/dose IP on days 1, 3, 5, 7, 9 and 11, day 21): 1849 mg | S/T = No. Survivors/No. on Day +28 post tumor cell implantation ([8]; 30 mg/kg/dose IP on days 1, 3, 5, 7, 9 and 11, day +28): 10/10 | Inhibition of Cancer Cell Growth in vitro IC50, 3T3 [6]: 0.37 µg/mL | IC50 [6]: 0.35 µg/mL (≈ 0.536 µM) | Inhibition of Cancer Cell Growth in vitro IC50, SKBR3 [9]: 0.0025 µg/mL

IC50 [1]: 2190 nM | IC50 [2]: > 5 µg/mL | IC50 [4]: 854 nM | Inhibition of Cancer Cell Growth in vitro IC50, A431 [7]: 0.21 µg/mL | IC50 [7]: 0.2 µg/mL (≈ 0.258 µM)
Structure (SMILES): CCOc1cc2ncc(C#N)c(Nc3ccc(F)c(Cl)c3)c2cc1NC(=O)CC(CN(C)C)SCC(NC(=O)CC[C@@H](N)C(=O)O)C(=O)NCC(=O)O (stereo partly drawn) [Example 8, (2R)-2-amino-5-({2-[(carboxymethyl)amino]-1-[({3-{[4-(3-chloro-4-fluoroanilino)-3-cyano-7-ethoxy-6-quinolinyl]amino}-1-[(dimethylamino)methyl]-3-oxopropyl}sulfanyl)methyl]-2-oxoethyl}amino)-5-oxopentanoic acid]
IC50 [6]: > 5 µg/mL

melting point: 102 to 104 °C
Structure (SMILES): CCOc1cc2ncc(C#N)c(Nc3ccc(OCc4ccccc4)c(Cl)c3)c2cc1NC(=O)CC(CN(C)C)N(C)C (centres unmarked) [Example 9, N-{4-[4-(Benzyloxy)-3-chloroanilino]-3-cyano-7-ethoxy-6-quinolinyl}-3,4-bis(dimethylamino)butanamide]
